From US20240148664A1, “LIPID AND COMPOSITION” (SOGO PHARMACEUTICAL CO., LTD., priority 2021, published 2024)

Tests used:
[1] = system: HT1080-EGFP (human/fibrosarcoma) cells; assay: Evaluation of toxicity: CCK-8 assay; type: cell-based; conditions: lipid nanoparticle containing siRNA; absorbance relative to control cells without lipid nanoparticle set at 1.00
Description: (§1) A. Provision of Cells • (i) A liquid medium (DMEM/Ham's F12, FBS+, P/S+) (FBS: fetal bovine serum, P/S: antibiotic) was taken out from a refrigerator and temperature-controlled in an incubator set at 37° C. • (ii) A cryotube containing the cells was taken out from a −80° C. freezer and thawed at once in an incubator set at 37° C. • (iii) A stock solution of the thawed cells was collected in a capped test tube. • (iv) The tube containing the cells was washed with the liquid medium, and the wash was also collected in the test tube. • (v) The tube was subjected to a centrifuge to precipitate the cells. • (vi) The supernatant was aspirated, and the liquid medium was added and gently tapped to disperse the cells. • (vii) A small amount of the cells-dispersed liquid medium was collected, and the number of cells was observed and counted under a microscope. • (viii) The cells were seeded in a 24-well plate such that the number of cells was 2×10^4 cells per well. For the plate for an LDH assay described later, the cells were seeded in a 96-well plate such that the number of cells was 4×10^3 cells per well. • (ix) The 24-well plate or the 96-well plate was placed in an incubator, and the cells were cultured for 24 hours under conditions of 37° C. and 5% CO2.
(§2) The produced lipid nanoparticles were introduced into cells. • (i) Fetal bovine serum (FBS) was added to a liquid medium (FBS-, P/S-) temperature-controlled as in (i) of A above, in such a way as to reach 10%. • (ii) A 24-well plate was taken out from an incubator, and the liquid medium supernatant in the 24-well plate was aspirated and washed with phosphate buffered saline (PBS). • (iii) 400 μL of the liquid medium produced in (i) above was added to the washed 24-well plate. In addition, 100 μL of an LNP solution having an adjusted concentration was added. • (iv) The 24-well plate was placed in the incubator, and the cells were cultured (for 24 hours). • (v) After 24 hours, the liquid medium supernatant in the 24-well plate was aspirated, and 500 μL of a liquid medium containing 10% FBS (FBS+/P/S+) was added. • (vi) The 24-well plate was placed in the incubator, and the cells were cultured for 24 hours under conditions of 37° C. and 5% CO2.
For Examples 1 to 9, a CCK-8 assay or an LDH assay was carried out to measure the metabolic activity of viable cells and relatively quantify the number of surviving cells to evaluate the toxicity of lipid nanoparticles.
(a) CCK-8 Assay • (i) Fetal bovine serum (FBS) and a viable cell counting kit (manufactured by DOJINDO LABORATORIES, Cell Count Kit-8) was added to a liquid medium (FBS-, P/S-) temperature-controlled as in (i) of A above, such that FBS was 10% and the kit was 10%. • (ii) A 24-well plate was taken out from an incubator. The liquid medium was removed, and 315 μL of the liquid medium containing the viable cell counting kit produced in (i) above was added. • (iii) The liquid medium was aged for 1 hour in the incubator. • (iv) The 24-well plate was taken out, and the absorbance was measured under conditions of a measurement wavelength of 450 nm and a target wavelength of 630 nm with a plate reader (manufactured by TECAN, Infinite M200). The absorbance was calculated with the absorbance of control cells to which no lipid nanoparticle was added set at 1.00. When the obtained value was 0.80 or more and 1.00 or less, a rating of double-circle (excellent) was given, when the obtained value was 0.50 or more and less than 0.80, a rating of circle (good) was given, when the obtained value was 0.20 or more and less than 0.50, a rating of triangle (fair) was given, and when the obtained value was less than 0.20, a rating of X-mark (poor) was given.

[2] = Measurement of particle size, polydispersity index and zeta potential of lipid nanoparticle (Zetasizer); type: physicochemical; conditions: lipid nanoparticle containing siRNA; for Particle size (nm) / PDI: main lipid/DPPC/cholesterol=45/10/45; for Particle size (nm): Z-average in ultrapure water; for PDI: ultrapure water; for Zeta potential (mV): pH 7.4 Tris-HCl
Description: 30 μL of each of the dialyzed lipid nanoparticle-containing solutions obtained by the above operation was measured out, 800 μL of ultrapure water was added to dilute the lipid nanoparticle-containing solution, and the diluted preparation solution was used to measure the particle size (nm) and the polydispersity index (PDI) by using a Zetasizer (manufactured by Malvern Panalytical, Zetasizer nano Ultra). The particle size was evaluated by Z-average in ultrapure water. The zeta potential was measured by using pH 7.4 Tris-HCl as a dilute solution.

[3] = system: HT1080-EGFP (human/fibrosarcoma) cells; assay: Evaluation of knockdown effect (GFP assay), Cell experiment 1; type: cell-based; conditions: lipid nanoparticle containing siRNA against EGFP; fluorescence intensity with control cells without lipid nanoparticle set at 100
Description: A cell experiment was carried out by using HT1080-EGFP (human/fibrosarcoma) cells in order to evaluate lipid nanoparticles encapsulating an siRNA produced by using the lipids of the Examples and the Comparative Examples. These cells are cells provided with a green fluorescent protein gene (EGFP). The expression of EGFP can be easily confirmed by measuring the fluorescence intensity of a solution in which the cells are lysed, and thus by acting lipid nanoparticles encapsulating an siRNA that suppresses the expression of EGFP and observing any decrease in fluorescence intensity, the performance of the lipid nanoparticles used can be evaluated. Hereinafter, the procedure of the cell experiment will be shown.
as §1, §2
By carrying out a GFP assay, the EGFP expression level in cells was measured to evaluate the effect of knocking down the green fluorescent protein gene (EGFP) by lipid nanoparticles. • (i) A 24-well plate was taken out from an incubator and washed with PBS. • (ii) A 1% octylglucoside solution to which a protease inhibitor was added was added in order to disrupt cells. Stirring with a pipette lysed the cells. • (iii) The cell lysate was transferred to an Eppendorf tube and subjected to a centrifuge. • (iv) 150 μL of the supernatant was collected and added to a plate for fluorescence measurement. • (v) The fluorescence intensity was measured under conditions of an excitation wavelength of 485 nm and a fluorescence wavelength of 535 nm with a plate reader (manufactured by TECAN, Infinite M200). The fluorescence intensity was calculated with the fluorescence intensity of control cells to which no lipid nanoparticle was added set at 100.

[4] = siRNA / mRNA encapsulation rate of lipid nanoparticle (RiboGreen); type: physicochemical; conditions: siRNA encapsulation rate of lipid nanoparticle
Description: The siRNA encapsulation rate and the mRNA encapsulation rate of the lipid nanoparticle were obtained as follows. First, a surfactant (Sigma-Aldrich, Triton (registered trademark), X-100 (reducing type)) was added to the lipid nanoparticle-containing solution to disrupt the lipid nanoparticle to release the encapsulated siRNA or mRNA. The amounts of the lipid nanoparticle-containing solution and the surfactant were adjusted such that the siRNA or the mRNA was 2 pmol and the surfactant was 1% in 40 μL of the solution after adding the surfactant to the lipid nanoparticle-containing solution. Next, the RiboGreen reagent (reagent that reacts with siRNA to emit fluorescence, manufactured by Thermo Fisher Scientific, Quant-iT (registered trademark) RiboGreen (registered trademark) RNA Assay Kit) was added to the solution, and the fluorescence intensity was measured under conditions of an excitation wavelength of 480 nm and a fluorescence wavelength of 520 nm with a fluorescence intensity meter (manufactured by TECAN, Infinite M200). Specifically, 75 μL of the RiboGreen reagent diluted to 1/2000 was added to a diluted solution obtained by adding 65 μL of citrate buffer to 10 μL of the solution, and the fluorescence intensity was measured. This makes it possible to relatively measure the total amount of the siRNA or the total amount of the mRNA present in the solution.
Subsequently, the RiboGreen reagent was added to the lipid nanoparticle-containing solution without adding a surfactant, and the fluorescence intensity was measured in the same manner with a fluorescence intensity meter. By not adding a surfactant, it is possible to relatively measure the amount of the siRNA or the mRNA free in the solution without being encapsulated in the lipid nanoparticle.
Then, the fluorescence intensity obtained from the solution to which the surfactant was added obtained as described above was fluorescence intensity a, and the fluorescence intensity thus obtained from the solution to which no surfactant was added obtained as described above was fluorescence intensity b, and according to the expression (a−b)/a×100, the siRNA encapsulation rate (%) or the mRNA encapsulation rate (%) of the lipid nanoparticle was obtained. Each of fluorescence intensity a and fluorescence intensity b is a value obtained by subtracting a blank from the arithmetic average value of the results of three measurements for each solution. The blank was measured by carrying out the same operation on a well containing water containing no cell or lipid nanoparticle.

Particle size (nm) [2]	PDI [2]	Zeta potential (mV) [2]	Encapsulation rate (%) [4]	SMILES	CCK Assay [1]	GFP Assay [3]
94.2 nm	0.159	8.28 mV	100%	CCCCCCCC/C=C\CCCCCCCCC(CCCCCCC/C=C\CCCCCCCC)OC(=O)C(CC(=O)O)NC(=O)C(N)CCCCN (stereo not drawn) [Example 7, 3-(2,6-diaminohexanamido)-4-(((9Z,27Z)-hexatriaconta-9,27-dien-18-yl)oxy)-4-oxobutanoic acid]	◯ (when the obtained value was 0.50 or more and less than 0.80, a rating of circle (good) was given)	28
162.5 nm	0.147	19.1 mV	100%	CCCCCCCC/C=C\CCCCCCCCC(CCCCCCC/C=C\CCCCCCCC)OC(=O)C(CCC(=O)O)NC(=O)C(N)CCCCN (stereo not drawn) [Example 8, 4-(2,6-diaminohexanamido)-5-(((9Z,27Z)-hexatriaconta-9,27-dien-18-yl)oxy)-5-oxopentanoic acid]	⊚ (When the obtained value was 0.80 or more and 1.00 or less, a rating of double-circle (excellent) was given)	47
107.6 nm	0.093	24.6 mV	84%	CCCCCCCC/C=C\CCCCCCCCC(CCCCCCC/C=C\CCCCCCCC)OC(=O)C(CCC(=O)O)NC(=O)C(N)Cc1c[nH]cn1 (stereo not drawn) [Example 9, 4-(2-amino-3-(1H-imidazol-4-yl)propanamido)-5-(((9Z,27Z)-hexatriaconta-9,27-dien-18-yl)oxy)-5-oxopentanoic acid]	⊚ (When the obtained value was 0.80 or more and 1.00 or less, a rating of double-circle (excellent) was given)	56
